Measurements: patent publication US12325676B2, “Cationic lipid compound and composition for delivery of nucleic acids and use thereof” (Shenzhen Rhegen Biotechnology Co., Ltd., priority 2022, dated 2025)

system: not listed separately; assay: Encapsulation rate of mRNA-loaded lipid nanoparticles (Ribogreen kit); assay type: physicochemical; details: Table 4 batch; EPO mRNA LNP prepared as Example 20

Row | SMILES | Encapsulation rate (%)
1 | CCCCCCCCOCC(C)C(=O)OCCCCCN(CCO)CCCCCCCOC(=O)C(CCCCCCCC)CCCCCCCC (stereo not shown) [Compound 16] | 96.5
2 | CCCCCCCCC(CCCCCCCC)C(=O)OCCCCCCCN(CCO)CCCCCCCOC(=O)C(C)COCCCCCC (stereo not shown) [Compound 17] | 96.9
3 | CCCCCCCCC(CCCCCCCC)OC(=O)CCCCCCCN(CCO)CCCCCCCOC(=O)C(C)COCCCCCC (stereo not shown) [Compound 23] | 96.5
4 | CCCCCCCCSCC(C)C(=O)OCCCCCN(CCO)CCCCCCCOC(=O)C(CCCCCCCC)CCCCCCCC (stereo not shown) [Compound 44] | 95.5
5 | CCCCCCCCC(CCCCCCCC)C(=O)OCCCCCCCN(CCO)CCCCCCCOC(=O)C(C)CSCCCCCC (stereo not shown) [Compound 45] | 93.9

system: not listed separately; assay: Particle size, PDI and zeta potential of mRNA-loaded lipid nanoparticles (Malvern Zetasizer nano); assay type: physicochemical; details: Table 4 batch; EPO mRNA LNP prepared as Example 20

Row | SMILES | PDI | Particle size (nm)
6 | CCCCCCCCOCC(C)C(=O)OCCCCCN(CCO)CCCCCCCOC(=O)C(CCCCCCCC)CCCCCCCC (stereo not shown) [Compound 16] | 0.12 | 75.4
7 | CCCCCCCCC(CCCCCCCC)C(=O)OCCCCCCCN(CCO)CCCCCCCOC(=O)C(C)COCCCCCC (stereo not shown) [Compound 17] | 0.09 | 74.0
8 | CCCCCCCCC(CCCCCCCC)OC(=O)CCCCCCCN(CCO)CCCCCCCOC(=O)C(C)COCCCCCC (stereo not shown) [Compound 23] | 0.11 | 81.7
9 | CCCCCCCCSCC(C)C(=O)OCCCCCN(CCO)CCCCCCCOC(=O)C(CCCCCCCC)CCCCCCCC (stereo not shown) [Compound 44] | 0.17 | 82.5
10 | CCCCCCCCC(CCCCCCCC)C(=O)OCCCCCCCN(CCO)CCCCCCCOC(=O)C(C)CSCCCCCC (stereo not shown) [Compound 45] | 0.15 | 81.0

system: BALB/c mice; assay: In vivo expression of luciferase mRNA delivered by LNP, tail intravenous injection, small animal imaging; details: Table 3, 5 μg mRNA, female BALB/c mice, DLin-MC3-DMA = 100
Description: LUC-mRNA-lipid nanoparticles containing 5 μg mRNA (see SEQ ID NO: 1 in the Patent Application Publication CN114380724A for the corresponding nucleotide sequence of LUC-mRNA) were injected via tail intravenous injection in 6-8 week old female BALB/c mice, prepared as in Example 19. 100 μg of D-Luciferin Potassium Salt was injected via tail intravenous injection into the mice at specific time points and assayed using the PerkinElmer Small Animal Imaging System. Fluc is commonly used in mammalian cell cultures to measure gene expression and cell viability, and it emits biological fluorescent light in the presence of the substrate […]. The basic characteristics of the mRNA used include ARCA cap structure, polyA tail length of 120 nt, and complete substitution of pseudouridine.
The effect of delivering luciferase mRNA using more cationic lipids were validated according to the methods of Example 20 and Example 21.

Row | SMILES | relative fluorescence intensity (%)
11 | CCCCCCCCOCC(C)C(=O)OCCCCCN(CCO)CCCCCCCOC(=O)C(CCCCCCCC)CCCCCCCC (stereo not shown) [Compound 16] | 574 ± 102
12 | CCCCCCCCC(CCCCCCCC)C(=O)OCCCCCCCN(CCO)CCCCCCCOC(=O)C(C)COCCCCCC (stereo not shown) [Compound 17] | 686 ± 45
13 | CCCCCCCCC(CCCCCCCC)OC(=O)CCCCCCCN(CCO)CCCCCCCOC(=O)C(C)COCCCCCC (stereo not shown) [Compound 23] | 764 ± 39
14 | CCCCCCCCSCC(C)C(=O)OCCCCCN(CCO)CCCCCCCOC(=O)C(CCCCCCCC)CCCCCCCC (stereo not shown) [Compound 44] | 843 ± 52
15 | CCCCCCCCC(CCCCCCCC)C(=O)OCCCCCCCN(CCO)CCCCCCCOC(=O)C(C)CSCCCCCC (stereo not shown) [Compound 45] | 559 ± 33

system: not listed separately; assay: Encapsulation rate of mRNA-loaded lipid nanoparticles (Ribogreen kit); assay type: physicochemical; details: Table 1; Luciferase mRNA LNP; cationic lipid:DSPC:cholesterol:DMG-PEG2000 50:10:38.5:1.5 molar
Description: (§1) Luciferase mRNA was diluted in 10-100 mM citrate buffer at pH 4.0; the lipid components (cationic lipids shown in the present disclosure: DSPC:cholesterol:PEG lipids (DMG-PEG2000)) were dissolved in ethanol at a molar ratio of 50:10:38.5:1.5.
(§2) 3 mL of a mRNA buffer and 1 mL of a lipid solution were loaded into two 5 mL syringes respectively, and the syringes were installed on a microfluidic syringe pump. Chips were connected to the syringes and syringe pump flow rate was set. Clicking the start button of the syringe pump caused injection into the chip at a flow rate ratio of 3:1. Under observation of the color of the product at the exit of the chip, after discarding the first 5 milky white droplets (about 100 μL), the back-end sample was collected into an EP tube. The collected product was placed in a dialysis bag and dialyzed for 6 h (MWCO: 100 KDa) in 10 mM PBS (pH 7.4) intervals. Subsequently, after being concentrated by ultrafiltration to the desired concentration, the lipid nanoparticles were filtered through a 0.22 μm sterile filter and then stored at 4° C.
(§3) Tests were performed to calculate the encapsulation rate of the products according to the instructions of Ribogreen kit. Particle size and polydispersity index (PDI) detection as well as zeta potential analysis was performed on a Malvern Zetasizer nano instrument using standard assays.

Row | SMILES | Encapsulation rate (%)
16 | CCCCCCCCCCOCC(C)C(=O)OCCCCCN(CCO)CCCCCCCC(=O)OC(CCCCCCCC)CCCCCCCC (stereo not shown) [Compound 2] | 87.8
17 | CCCCCCCCCCOCC(CC)C(=O)OCCCCCN(CCO)CCCCCCCC(=O)OC(CCCCCCCC)CCCCCCCC (stereo not shown) [Compound 3] | 87.5
18 | CCCCCCCCCCOCC(CCC)C(=O)OCCCCCN(CCO)CCCCCCCC(=O)OC(CCCCCCCC)CCCCCCCC (stereo not shown) [Compound 4] | 83.7
19 | CCCCCCCCOCC(CCCC)C(=O)OCCCCCN(CCO)CCCCCCCC(=O)OC(CCCCCCCC)CCCCCCCC (stereo not shown) [Compound 6] | 63.9

Results, then the compound that gave them:

Row | Encapsulation rate (%) | SMILES
20 | 92.5 | CCCCCCCCC(CCCCCCCC)C(=O)OCCCCCCCN(CCO)CCCCCCCOC(=O)C(C)COCCCCCC (stereo not shown) [Compound 17]
21 | 96.4 | CCCCCCCCSCC(C)C(=O)OCCCCCN(CCO)CCCCCCCOC(=O)C(CCCCCCCC)CCCCCCCC (stereo not shown) [Compound 44]

same assay, conditions: Table 3 batch; luciferase mRNA LNP prepared as Example 20

Row | SMILES | Encapsulation rate (%)
22 | CCCCCCCCOCC(C)C(=O)OCCCCCN(CCO)CCCCCCCOC(=O)C(CCCCCCCC)CCCCCCCC (stereo not shown) [Compound 16] | 95.6
23 | CCCCCCCCC(CCCCCCCC)C(=O)OCCCCCCCN(CCO)CCCCCCCOC(=O)C(C)COCCCCCC (stereo not shown) [Compound 17] | 97.6
24 | CCCCCCCCC(CCCCCCCC)OC(=O)CCCCCCCN(CCO)CCCCCCCOC(=O)C(C)COCCCCCC (stereo not shown) [Compound 23] | 97.0
25 | CCCCCCCCSCC(C)C(=O)OCCCCCN(CCO)CCCCCCCOC(=O)C(CCCCCCCC)CCCCCCCC (stereo not shown) [Compound 44] | 97.1
26 | CCCCCCCCC(CCCCCCCC)C(=O)OCCCCCCCN(CCO)CCCCCCCOC(=O)C(C)CSCCCCCC (stereo not shown) [Compound 45] | 96.8

system: BALB/c mice; assay: In vivo EPO protein expression after tail i.v. injection of EPO-mRNA LNP, serum ELISA; details: 6 hours after tail i.v. injection of 20 μg EPO-mRNA-lipid nanoparticles, female Balb/c mice
Description: In the example, the effects of in vivo transfection of erythropoietin (EPO) by various cationic liposomes were compared. Nanoparticles were prepared in the same manner as in Example 20, and the nucleotide sequence corresponding to the EPO mRNA used is given in CN114380724B, SEQ ID NO:2. After preparation, 20 μg of EPO-mRNA-lipid nanoparticles were injected via tail intravenous injection in 6-8 week female Balb/c mice. 6 hours later the mice were subjected to blood sampling from the eye frame. After centrifugation to separate the serum, EPO protein expression was determined using ELISA. The basic characteristics of the mRNA used include ARCA cap structure, polyA tail length of 100-120 nt, and complete substitution of pseudouridine.

Row | SMILES | EPO concentration [pg/mL]
27 | CCCCCCCCOCC(C)C(=O)OCCCCCN(CCO)CCCCCCCOC(=O)C(CCCCCCCC)CCCCCCCC (stereo not shown) [Compound 16] | 3.01e+07
28 | CCCCCCCCC(CCCCCCCC)C(=O)OCCCCCCCN(CCO)CCCCCCCOC(=O)C(C)COCCCCCC (stereo not shown) [Compound 17] | 3.25e+07
29 | CCCCCCCCC(CCCCCCCC)OC(=O)CCCCCCCN(CCO)CCCCCCCOC(=O)C(C)COCCCCCC (stereo not shown) [Compound 23] | 4.11e+07
30 | CCCCCCCCSCC(C)C(=O)OCCCCCN(CCO)CCCCCCCOC(=O)C(CCCCCCCC)CCCCCCCC (stereo not shown) [Compound 44] | 4.89e+07
31 | CCCCCCCCC(CCCCCCCC)C(=O)OCCCCCCCN(CCO)CCCCCCCOC(=O)C(C)CSCCCCCC (stereo not shown) [Compound 45] | 3.46e+07

system: not listed separately; assay: Particle size, PDI and zeta potential of mRNA-loaded lipid nanoparticles (Malvern Zetasizer nano); assay type: physicochemical; details: Table 1; Luciferase mRNA LNP; cationic lipid:DSPC:cholesterol:DMG-PEG2000 50:10:38.5:1.5 molar
Description: as §1, §2, §3

Row | SMILES | PDI | Particle size (nm) | Zeta potential (mV)
32 | CCCCCCCCCCOCC(C)C(=O)OCCCCCN(CCO)CCCCCCCC(=O)OC(CCCCCCCC)CCCCCCCC (stereo not shown) [Compound 2] | 0.12 | 97.3 | 0.49
33 | CCCCCCCCCCOCC(CC)C(=O)OCCCCCN(CCO)CCCCCCCC(=O)OC(CCCCCCCC)CCCCCCCC (stereo not shown) [Compound 3] | 0.10 | 113.9 | 1.95
34 | CCCCCCCCCCOCC(CCC)C(=O)OCCCCCN(CCO)CCCCCCCC(=O)OC(CCCCCCCC)CCCCCCCC (stereo not shown) [Compound 4] | 0.21 | 94.4 | 0.39
35 | CCCCCCCCOCC(CCCC)C(=O)OCCCCCN(CCO)CCCCCCCC(=O)OC(CCCCCCCC)CCCCCCCC (stereo not shown) [Compound 6] | 0.17 | 95.6 | 0.79

Other lines, results leading:

Row | PDI | Particle size (nm) | Zeta potential (mV) | SMILES
36 | 0.10 | 90.9 | −0.15 | CCCCCCCCC(CCCCCCCC)C(=O)OCCCCCCCN(CCO)CCCCCCCOC(=O)C(C)COCCCCCC (stereo not shown) [Compound 17]
37 | 0.21 | 104.1 | −2.82 | CCCCCCCCSCC(C)C(=O)OCCCCCN(CCO)CCCCCCCOC(=O)C(CCCCCCCC)CCCCCCCC (stereo not shown) [Compound 44]

same assay, conditions: Table 3 batch; luciferase mRNA LNP prepared as Example 20

Row | SMILES | PDI | Particle size (nm)
38 | CCCCCCCCOCC(C)C(=O)OCCCCCN(CCO)CCCCCCCOC(=O)C(CCCCCCCC)CCCCCCCC (stereo not shown) [Compound 16] | 0.20 | 90.9
39 | CCCCCCCCC(CCCCCCCC)C(=O)OCCCCCCCN(CCO)CCCCCCCOC(=O)C(C)COCCCCCC (stereo not shown) [Compound 17] | 0.11 | 68.2
40 | CCCCCCCCC(CCCCCCCC)OC(=O)CCCCCCCN(CCO)CCCCCCCOC(=O)C(C)COCCCCCC (stereo not shown) [Compound 23] | 0.10 | 75.4
41 | CCCCCCCCSCC(C)C(=O)OCCCCCN(CCO)CCCCCCCOC(=O)C(CCCCCCCC)CCCCCCCC (stereo not shown) [Compound 44] | 0.10 | 71.1
42 | CCCCCCCCC(CCCCCCCC)C(=O)OCCCCCCCN(CCO)CCCCCCCOC(=O)C(C)CSCCCCCC (stereo not shown) [Compound 45] | 0.15 | 80.9
